In PMC4965013, “Open Source Drug Discovery with the Malaria Box Compound Collection for Neglected Diseases and Beyond” (PLoS Pathogens, 2016):

Legend:
[1] = test system: P. falciparum 3D7 trophozoites; test: Metabolomic fingerprint profiling LC-MS; assay type: cell-based, Plasmodium falciparum; set-up: UDP-D-glucose / ADP-D-glucose: unit not given here
[2] = test system: P. falciparum; test: EC50 listed in S2 Table Metabolomics (used to set the concentration tested); assay type: cell-based; conditions: Plasmodium falciparum; EC50 used for Factor_XEC50 in metabolomics; read-out: EC50_nM
[3] = metabolite level change after treatment

COc1ccc(C2=C(c3ccc(OC)cc3)C3(c4ccccc4)C(=O)C2(c2ccccc2)C2C(=O)N(c4ccc(C)cc4)C(=O)C23)cc1 (centres unmarked) [MMV666101]
Acetyllysine ([1]; S2 Table Metabolomics, metabolite Acetyllysine): -0.1129
N-acetyl-L-ornithine ([1]; S2 Table Metabolomics, metabolite N-acetyl-L-ornithine): 0.1609
N-carbamoyl-L-aspartate ([1]; S2 Table Metabolomics, metabolite N-carbamoyl-L-aspartate): -0.002224
NADPH ([1]; S2 Table Metabolomics, metabolite NADPH): -0.9507
dAMP ([1]; S2 Table Metabolomics, metabolite dAMP): -0.2629
dCMP ([1]; S2 Table Metabolomics, metabolite dCMP): 0.3804
dTDP ([1]; S2 Table Metabolomics, metabolite dTDP): 0.03996
dTMP ([1]; S2 Table Metabolomics, metabolite dTMP): 0.002701
dTTP ([1]; S2 Table Metabolomics, metabolite dTTP): 0.2425
dihydroorotate ([1]; S2 Table Metabolomics, metabolite dihydroorotate): 0.3476
orotate ([1]; S2 Table Metabolomics, metabolite orotate): -0.884
DLH ([1]; S2 Table Metabolomics, peptide DLH): 0.3443
DLS/SDL/SID ([1]; S2 Table Metabolomics, peptide DLS/SDL/SID): 0.3548
PD ([1]; S2 Table Metabolomics, peptide PD): 0.01018
PEE ([1]; S2 Table Metabolomics, peptide PEE): 0.2697
PVNF ([1]; S2 Table Metabolomics, peptide PVNF): 0.3279
3-phosphoglycerate ([1]; metabolite 3-phosphoglycerate, S2 Table Metabolomics): -0.07386
ADP-D-glucose ([1]; metabolite ADP-D-glucose, S2 Table Metabolomics): 0.1248
ATP ([1]; metabolite ATP, S2 Table Metabolomics): 0.5165
CDP ([1]; metabolite CDP, S2 Table Metabolomics, change in metabolite level after compound treatment): 0.04064
D-sedoheptulose-1/7-phosphate ([1]; metabolite D-sedoheptulose-1/7-phosphate, S2 Table Metabolomics, change in metabolite level after compound treatment): 0.08624
FAD ([1]; metabolite FAD, S2 Table Metabolomics): 0.1013
GMP ([1]; metabolite GMP, S2 Table Metabolomics, change in metabolite level after compound treatment): 0.6118
NAD+ ([1]; metabolite NAD+, S2 Table Metabolomics): -0.01164
NADP+ ([1]; metabolite NADP+, S2 Table Metabolomics): 0.3941
Octoluse Bisphosphate ([1]; metabolite Octoluse Bisphosphate, S2 Table Metabolomics, change in metabolite level after compound treatment): 0.2807
Pyroglutamic acid ([1]; metabolite Pyroglutamic acid, S2 Table Metabolomics): 0.2222
UDP-D-glucose ([1]; metabolite UDP-D-glucose, S2 Table Metabolomics): -0.02174
UDP-D-glucuronate ([1]; metabolite UDP-D-glucuronate, S2 Table Metabolomics): 0.06413
UDP-N-acetyl-glucosamine ([1]; metabolite UDP-N-acetyl-glucosamine, S2 Table Metabolomics): 0.01073
UDP ([1]; metabolite UDP, S2 Table Metabolomics, change in metabolite level after compound treatment): 0.07085
UMP ([1]; metabolite UMP, S2 Table Metabolomics, change in metabolite level after compound treatment): 0.1142
UTP ([1]; metabolite UTP, S2 Table Metabolomics, change in metabolite level after compound treatment): 0.03866
a-ketoglutarate ([1]; metabolite a-ketoglutarate, S2 Table Metabolomics): -0.8357
citrate/isocitrate ([1]; metabolite citrate/isocitrate, S2 Table Metabolomics, change in metabolite level after compound treatment): -1.04
cytidine ([1]; metabolite cytidine, S2 Table Metabolomics): 0.3993
dATP ([1]; metabolite dATP, S2 Table Metabolomics): -0.09007
dGMP/AMP ([1]; metabolite dGMP/AMP, S2 Table Metabolomics, change in metabolite level after compound treatment): -0.1266
fumarate ([1]; metabolite fumarate, S2 Table Metabolomics, change in metabolite level after compound treatment): -0.05622
glucose-1/6-phosphate ([1]; metabolite glucose-1/6-phosphate, S2 Table Metabolomics, change in metabolite level after compound treatment): 0.03368
glycerate ([1]; metabolite glycerate, S2 Table Metabolomics, change in metabolite level after compound treatment): -0.6868
guanine ([1]; metabolite guanine, S2 Table Metabolomics, change in metabolite level after compound treatment): -0.559
guanosine ([1]; metabolite guanosine, S2 Table Metabolomics, change in metabolite level after compound treatment): -0.9392
hypoxanthine ([1]; metabolite hypoxanthine, S2 Table Metabolomics): -0.6138
indole ([1]; metabolite indole, S2 Table Metabolomics): -0.8533
inosine ([1]; metabolite inosine, S2 Table Metabolomics, change in metabolite level after compound treatment): -0.8697
2_3-Diphosphoglyceric acid [1, 3]: 0.4338
4-phosphopantothenate [1, 3]: -0.011
6-phospho-D-gluconate [1, 3]: 0.058
FMN [1, 3]: 0.02064
IMP [1, 3]: -0.3616
Pyrophosphate [1, 3]: 0.3662
Sedoheptoluse bisphosphate [1, 3]: 0.08206
cyclic-AMP [1, 3]: -0.009901
glutathione disulfide [1, 3]: 0.01065
lactate [1, 3]: -0.9335
myo-inositol [1, 3]: -1.462
nicotinate ([1]; metabolite nicotinate, S2 Table Metabolomics): -1.016
ornithine ([1]; metabolite ornithine, S2 Table Metabolomics): -0.4187
phosphoenolpyruvate ([1]; metabolite phosphoenolpyruvate, S2 Table Metabolomics): 0.02347
pyruvate ([1]; metabolite pyruvate, S2 Table Metabolomics, change in metabolite level after compound treatment): -0.8543
ribose-phosphate ([1]; metabolite ribose-phosphate, S2 Table Metabolomics): -0.007312
sarcosine/alanine ([1]; metabolite sarcosine/alanine, S2 Table Metabolomics, change in metabolite level after compound treatment): 0.06192
sn-glycerol-3-phosphate ([1]; metabolite sn-glycerol-3-phosphate, S2 Table Metabolomics): -0.02979
succinate/methylmalonic acid ([1]; metabolite succinate/methylmalonic acid, S2 Table Metabolomics, change in metabolite level after compound treatment): -0.01842
uridine ([1]; metabolite uridine, S2 Table Metabolomics, change in metabolite level after compound treatment): -0.9813
xanthosine ([1]; metabolite xanthosine, S2 Table Metabolomics, change in metabolite level after compound treatment): -0.2752
EC50 [2]: 148 nM
